Assay results as given in the NIST ThermoML archive (doi:10.1016/j.jct.2004.06.002).
± gives the expanded uncertainty stated by the source.

Assays:
[1] = Molar enthalpy of transition or fusion; conditions: Crystal
[2] = Crystal
[3] = molar heat capacity at constant pressure; conditions: 101.33 kPa

## CCCCCCCCCCCC(=O)O.Cc1cc(C)nc(Nc2ccccc2)n1 [4,6-dimethyl-N-phenylpyrimidin-2-amine dodecanoate]
[1]
  Molar enthalpy of transition or fusion: 16.07 ± 0.0263 kcal/mol
[2]
  Triple point temperature: 321.52 ± 0.12 K
[3]; 78.4 K, Crystal
  molar heat capacity at constant pressure: 214.56 ± 2.3 J/K/mol
[3]; 80.59 K, Crystal
  molar heat capacity at constant pressure: 219.02 ± 2.4 J/K/mol
[3]; 82.77 K, Crystal
  molar heat capacity at constant pressure: 224.04 ± 2.4 J/K/mol
[3]; 84.91 K, Crystal
  molar heat capacity at constant pressure: 229.03 ± 2.5 J/K/mol
[3]; 87.02 K, Crystal
  molar heat capacity at constant pressure: 231.07 ± 2.5 J/K/mol
[3]; 89.13 K, Crystal
  molar heat capacity at constant pressure: 235.38 ± 2.6 J/K/mol
[3]; 91.21 K, Crystal
  molar heat capacity at constant pressure: 238.58 ± 2.3 J/K/mol
[3]; 93.27 K, Crystal
  molar heat capacity at constant pressure: 241.25 ± 2.3 J/K/mol
[3]; 95.35 K, Crystal
  molar heat capacity at constant pressure: 244.45 ± 2.4 J/K/mol
[3]; 97.44 K, Crystal
  molar heat capacity at constant pressure: 249.07 ± 2.4 J/K/mol
[3]; 99.52 K, Crystal
  molar heat capacity at constant pressure: 255.64 ± 2.4 J/K/mol
[3]; 101.56 K, Crystal
  molar heat capacity at constant pressure: 258.48 ± 2.5 J/K/mol
[3]; 103.55 K, Crystal
  molar heat capacity at constant pressure: 262.85 ± 2.5 J/K/mol
[3]; 105.48 K, Crystal
  molar heat capacity at constant pressure: 266.32 ± 2.5 J/K/mol
[3]; 107.37 K, Crystal
  molar heat capacity at constant pressure: 268.87 ± 2.6 J/K/mol
[3]; 109.23 K, Crystal
  molar heat capacity at constant pressure: 272.45 ± 2.6 J/K/mol
[3]; 111.05 K, Crystal
  molar heat capacity at constant pressure: 277.04 ± 2.6 J/K/mol
[3]; 112.84 K, Crystal
  molar heat capacity at constant pressure: 280.4 ± 2.6 J/K/mol
[3]; 114.62 K, Crystal
  molar heat capacity at constant pressure: 283.66 ± 2.7 J/K/mol
[3]; 116.37 K, Crystal
  molar heat capacity at constant pressure: 286.19 ± 2.7 J/K/mol
[3]; 118.1 K, Crystal
  molar heat capacity at constant pressure: 289.83 ± 2.7 J/K/mol
[3]; 119.81 K, Crystal
  molar heat capacity at constant pressure: 291.78 ± 2.7 J/K/mol
[3]; 121.5 K, Crystal
  molar heat capacity at constant pressure: 295.26 ± 2.8 J/K/mol
[3]; 123.18 K, Crystal
  molar heat capacity at constant pressure: 299.07 ± 2.8 J/K/mol
[3]; 124.85 K, Crystal
  molar heat capacity at constant pressure: 302.36 ± 2.8 J/K/mol
[3]; 126.5 K, Crystal
  molar heat capacity at constant pressure: 305.27 ± 2.8 J/K/mol
[3]; 128.13 K, Crystal
  molar heat capacity at constant pressure: 309.31 ± 2.9 J/K/mol
[3]; 129.75 K, Crystal
  molar heat capacity at constant pressure: 313.47 ± 2.9 J/K/mol
[3]; 131.36 K, Crystal
  molar heat capacity at constant pressure: 316.7 ± 2.9 J/K/mol
[3]; 133.51 K, Crystal
  molar heat capacity at constant pressure: 320.85 ± 3 J/K/mol
[3]; 136.04 K, Crystal
  molar heat capacity at constant pressure: 325.43 ± 3 J/K/mol
[3]; 138.47 K, Crystal
  molar heat capacity at constant pressure: 328.35 ± 3 J/K/mol
[3]; 140.85 K, Crystal
  molar heat capacity at constant pressure: 332.7 ± 3.1 J/K/mol
[3]; 143.2 K, Crystal
  molar heat capacity at constant pressure: 334.95 ± 3.1 J/K/mol
[3]; 145.52 K, Crystal
  molar heat capacity at constant pressure: 336.56 ± 3.1 J/K/mol
[3]; 147.82 K, Crystal
  molar heat capacity at constant pressure: 338.15 ± 3.1 J/K/mol
[3]; 150.09 K, Crystal
  molar heat capacity at constant pressure: 340.57 ± 3.1 J/K/mol
[3]; 152.34 K, Crystal
  molar heat capacity at constant pressure: 342.79 ± 3.1 J/K/mol
[3]; 154.57 K, Crystal
  molar heat capacity at constant pressure: 344.26 ± 3.2 J/K/mol
[3]; 156.78 K, Crystal
  molar heat capacity at constant pressure: 346.53 ± 3.2 J/K/mol
[3]; 158.98 K, Crystal
  molar heat capacity at constant pressure: 347.92 ± 3.2 J/K/mol
[3]; 161.16 K, Crystal
  molar heat capacity at constant pressure: 351.38 ± 3.2 J/K/mol
[3]; 163.31 K, Crystal
  molar heat capacity at constant pressure: 355.11 ± 3.2 J/K/mol
[3]; 165.46 K, Crystal
  molar heat capacity at constant pressure: 356.7 ± 3.3 J/K/mol
[3]; 167.59 K, Crystal
  molar heat capacity at constant pressure: 360.16 ± 3.3 J/K/mol
[3]; 169.71 K, Crystal
  molar heat capacity at constant pressure: 363.66 ± 3.3 J/K/mol
[3]; 171.81 K, Crystal
  molar heat capacity at constant pressure: 365.89 ± 3.3 J/K/mol
[3]; 173.91 K, Crystal
  molar heat capacity at constant pressure: 368.25 ± 3.3 J/K/mol
[3]; 175.99 K, Crystal
  molar heat capacity at constant pressure: 370.24 ± 3.4 J/K/mol
[3]; 178.06 K, Crystal
  molar heat capacity at constant pressure: 374.92 ± 3.4 J/K/mol
[3]; 180.1 K, Crystal
  molar heat capacity at constant pressure: 378.77 ± 3.4 J/K/mol
[3]; 182.13 K, Crystal
  molar heat capacity at constant pressure: 381.27 ± 3.5 J/K/mol
[3]; 184.16 K, Crystal
  molar heat capacity at constant pressure: 384.86 ± 3.5 J/K/mol
[3]; 186.15 K, Crystal
  molar heat capacity at constant pressure: 387.43 ± 3.5 J/K/mol
[3]; 188.14 K, Crystal
  molar heat capacity at constant pressure: 391.88 ± 3.5 J/K/mol
[3]; 190.11 K, Crystal
  molar heat capacity at constant pressure: 393.71 ± 3.6 J/K/mol
[3]; 192.06 K, Crystal
  molar heat capacity at constant pressure: 396.41 ± 3.6 J/K/mol
[3]; 194.01 K, Crystal
  molar heat capacity at constant pressure: 400.38 ± 3.6 J/K/mol
[3]; 195.94 K, Crystal
  molar heat capacity at constant pressure: 403.84 ± 3.6 J/K/mol
[3]; 197.86 K, Crystal
  molar heat capacity at constant pressure: 406.78 ± 3.7 J/K/mol
[3]; 199.77 K, Crystal
  molar heat capacity at constant pressure: 410.78 ± 3.7 J/K/mol
[3]; 201.68 K, Crystal
  molar heat capacity at constant pressure: 414.73 ± 3.7 J/K/mol
[3]; 203.58 K, Crystal
  molar heat capacity at constant pressure: 416.01 ± 3.7 J/K/mol
[3]; 205.49 K, Crystal
  molar heat capacity at constant pressure: 418.67 ± 3.7 J/K/mol
[3]; 207.39 K, Crystal
  molar heat capacity at constant pressure: 423.8 ± 3.8 J/K/mol
[3]; 209.27 K, Crystal
  molar heat capacity at constant pressure: 427.28 ± 3.8 J/K/mol
[3]; 213.63 K, Crystal
  molar heat capacity at constant pressure: 430.93 ± 3.8 J/K/mol
[3]; 215.48 K, Crystal
  molar heat capacity at constant pressure: 433.69 ± 3.9 J/K/mol
[3]; 217.33 K, Crystal
  molar heat capacity at constant pressure: 437.16 ± 3.9 J/K/mol
[3]; 219.16 K, Crystal
  molar heat capacity at constant pressure: 440.33 ± 3.9 J/K/mol
[3]; 220.99 K, Crystal
  molar heat capacity at constant pressure: 444.57 ± 4 J/K/mol
[3]; 222.81 K, Crystal
  molar heat capacity at constant pressure: 447.12 ± 4 J/K/mol
[3]; 224.61 K, Crystal
  molar heat capacity at constant pressure: 450.71 ± 4 J/K/mol
[3]; 226.4 K, Crystal
  molar heat capacity at constant pressure: 454.16 ± 4 J/K/mol
[3]; 228.17 K, Crystal
  molar heat capacity at constant pressure: 457.43 ± 4.1 J/K/mol
[3]; 229.91 K, Crystal
  molar heat capacity at constant pressure: 461.64 ± 4.1 J/K/mol
[3]; 231.66 K, Crystal
  molar heat capacity at constant pressure: 464.26 ± 4.1 J/K/mol
[3]; 233.45 K, Crystal
  molar heat capacity at constant pressure: 468.99 ± 4.1 J/K/mol
[3]; 235.26 K, Crystal
  molar heat capacity at constant pressure: 472.26 ± 4.2 J/K/mol
[3]; 237.06 K, Crystal
  molar heat capacity at constant pressure: 475.98 ± 4.2 J/K/mol
[3]; 238.86 K, Crystal
  molar heat capacity at constant pressure: 479.33 ± 4.2 J/K/mol
[3]; 240.62 K, Crystal
  molar heat capacity at constant pressure: 485.92 ± 4.3 J/K/mol
[3]; 242.33 K, Crystal
  molar heat capacity at constant pressure: 489.49 ± 4.3 J/K/mol
[3]; 244.03 K, Crystal
  molar heat capacity at constant pressure: 494.38 ± 4.4 J/K/mol
[3]; 245.76 K, Crystal
  molar heat capacity at constant pressure: 499.28 ± 4.4 J/K/mol
[3]; 248.1 K, Crystal
  molar heat capacity at constant pressure: 502 ± 4.4 J/K/mol
[3]; 250.99 K, Crystal
  molar heat capacity at constant pressure: 505.26 ± 4.4 J/K/mol
[3]; 253.79 K, Crystal
  molar heat capacity at constant pressure: 509.97 ± 4.5 J/K/mol
[3]; 256.52 K, Crystal
  molar heat capacity at constant pressure: 514.43 ± 4.5 J/K/mol
[3]; 259.21 K, Crystal
  molar heat capacity at constant pressure: 517.59 ± 4.5 J/K/mol
[3]; 261.87 K, Crystal
  molar heat capacity at constant pressure: 521.36 ± 4.6 J/K/mol
[3]; 264.51 K, Crystal
  molar heat capacity at constant pressure: 524.15 ± 4.6 J/K/mol
[3]; 267.13 K, Crystal
  molar heat capacity at constant pressure: 529.61 ± 4.6 J/K/mol
[3]; 269.73 K, Crystal
  molar heat capacity at constant pressure: 533.73 ± 4.7 J/K/mol
[3]; 272.3 K, Crystal
  molar heat capacity at constant pressure: 537.73 ± 4.7 J/K/mol
[3]; 274.79 K, Crystal
  molar heat capacity at constant pressure: 541.43 ± 4.7 J/K/mol
[3]; 277.25 K, Crystal
  molar heat capacity at constant pressure: 545.05 ± 4.8 J/K/mol
[3]; 279.67 K, Crystal
  molar heat capacity at constant pressure: 549.95 ± 4.8 J/K/mol
[3]; 282.04 K, Crystal
  molar heat capacity at constant pressure: 553.99 ± 4.8 J/K/mol
[3]; 284.36 K, Crystal
  molar heat capacity at constant pressure: 557.02 ± 4.9 J/K/mol
[3]; 286.64 K, Crystal
  molar heat capacity at constant pressure: 560.07 ± 4.9 J/K/mol
[3]; 288.9 K, Crystal
  molar heat capacity at constant pressure: 564.82 ± 4.9 J/K/mol
[3]; 291.1 K, Crystal
  molar heat capacity at constant pressure: 568.54 ± 4.9 J/K/mol
[3]; 293.23 K, Crystal
  molar heat capacity at constant pressure: 573.27 ± 5 J/K/mol
[3]; 295.4 K, Crystal
  molar heat capacity at constant pressure: 577.71 ± 5 J/K/mol
[3]; 297.6 K, Crystal
  molar heat capacity at constant pressure: 582.62 ± 5.1 J/K/mol
[3]; 299.78 K, Crystal
  molar heat capacity at constant pressure: 586.55 ± 5.1 J/K/mol
[3]; 301.95 K, Crystal
  molar heat capacity at constant pressure: 590.35 ± 5.1 J/K/mol
[3]; 304.05 K, Crystal
  molar heat capacity at constant pressure: 595.77 ± 5.2 J/K/mol
[3]; 306.13 K, Crystal
  molar heat capacity at constant pressure: 598.65 ± 5.2 J/K/mol
[3]; 308.2 K, Crystal
  molar heat capacity at constant pressure: 604.09 ± 5.2 J/K/mol
[3]; 323.46 K, Liquid
  molar heat capacity at constant pressure: 830.56 ± 7 J/K/mol
[3]; 325.28 K, Liquid
  molar heat capacity at constant pressure: 836.77 ± 7.1 J/K/mol
[3]; 327.09 K, Liquid
  molar heat capacity at constant pressure: 842.17 ± 7.1 J/K/mol
[3]; 328.88 K, Liquid
  molar heat capacity at constant pressure: 847.91 ± 7.2 J/K/mol
[3]; 330.65 K, Liquid
  molar heat capacity at constant pressure: 851.32 ± 7.2 J/K/mol
[3]; 332.41 K, Liquid
  molar heat capacity at constant pressure: 855.64 ± 7.2 J/K/mol
[3]; 334.15 K, Liquid
  molar heat capacity at constant pressure: 860.22 ± 7.3 J/K/mol
[3]; 335.87 K, Liquid
  molar heat capacity at constant pressure: 866.7 ± 7.3 J/K/mol
[3]; 337.57 K, Liquid
  molar heat capacity at constant pressure: 869.28 ± 7.4 J/K/mol
[3]; 339.26 K, Liquid
  molar heat capacity at constant pressure: 872.85 ± 7.4 J/K/mol
